tested on: D341 Med (cerebellar medulloblastoma cell); assay: Cell viability assay (Promega CellTiter-Glo), inhibitory effect on D341 Med; type: cell-based; conditions: Homo sapiens, 72 h, 3 days of culture, read-out: inhibitory effect on brain cell line D341 Med (IC50)
Experimental: (§1) The inhibitory effect of the compounds prepared in the Examples of the present invention on various brain tumor cell lines was detected using cell viability assay reagent.
(§2) Cell viability was detected using the Promega CellTiter-Glo kit, cell viability was determined by directly measuring intracellular ATP content. In the experiment, the IC50 value of the compounds prepared in the Examples of the present invention on various brain tumor cell lines was detected.
(§3) Each tumor cell was cultured in relevant medium. After cell passage, the gradient diluted compounds prepared in the Examples of the present invention was added. After 3 days of culture, the relevant IC50 (50% inhibiting concentration) was measured. The name, source and culture conditions of each tumor cell line were as follows:
Cell line D341 Med (ATCC, No. HTB-187) was cultured in 20% fetal bovine serum-containing EMEM medium (+P/S).

Row | SMILES | IC50 [nM]
1 | COc1ccc2cc3[n+](cc2c1NCCc1ccccc1)CCc1cc2c(cc1-3)OCO2 [compound AB31740] | 530

tested on: NCI-H82 (human small cell lung cancer cell); assay: Cell viability assay (Promega CellTiter-Glo), inhibitory effect on NCI-H82; type: cell-based; conditions: 72 h, 3 days of culture
Experimental: (§4) The inhibitory effect of the compounds prepared in the Examples of the present invention on various tumor cell lines was detected using cell viability assay reagent.
(§5) Cell viability was detected using the Promega CellTiter-Glo kit, cell viability was determined by directly measuring intracellular ATP content. In the experiment, the ICso value of the compounds prepared in the Examples of the present invention on various tumor cell lines was detected.
as §3
Cell line NCI-H82 (ATCC, No. HTB-175) was cultured in 10% fetal bovine serum-containing RPMI1640 medium (+P/S).

Row | SMILES | IC50 [nM]
2 | COc1ccc2cc3[n+](cc2c1NCCc1ccccc1)CCc1cc2c(cc1-3)OCO2 [compound AB31740] | 490

tested on: SW48 (human colon adenocarcinoma cell); assay: Cell viability assay (Promega CellTiter-Glo), inhibitory effect on SW48; type: cell-based; conditions: 72 h, 3 days of culture
Experimental: as §4, §5, §3
Cell line SW48 (ATCC, No. CCL-231) was cultured in 10% fetal bovine serum-containing Leibovitz's L-15 medium (+P/S).

Row | SMILES | IC50 [nM]
3 | COc1ccc2cc3[n+](cc2c1NCCc1ccccc1)CCc1cc2c(cc1-3)OCO2 [compound AB31740] | 340

tested on: MDA-MB-453 (breast cancer cell); assay: Cell viability assay (Promega CellTiter-Glo), inhibitory effect on MDA-MB-453; type: cell-based; conditions: Homo sapiens, 72 h, 3 days of culture
Experimental: as §4, §5, §3
Cell line MDA-MB-453 (ATCC, No. HTB-131) was cultured in 10% fetal bovine serum-containing Leibovitz's L-15 medium (+P/S).

Row | SMILES | IC50 [nM]
4 | COc1ccc2cc3[n+](cc2c1NCCc1ccccc1)CCc1cc2c(cc1-3)OCO2 [compound AB31740] | 200

tested on: NB-1 (brain neuroblastoma cell); assay: Cell viability assay (Promega CellTiter-Glo), inhibitory effect on NB-1; type: cell-based; conditions: Homo sapiens, 72 h, 3 days of culture, read-out: inhibitory effect on brain cell line NB-1 (IC50)
Experimental: as §1, §2, §3
Cell line NB-1 (ATCC, No. HTB-131) was cultured in 10% fetal bovine serum-containing Leibovitz's L-15 medium (+P/S).

Row | SMILES | IC50 [nM]
5 | COc1ccc2cc3[n+](cc2c1NCCc1ccccc1)CCc1cc2c(cc1-3)OCO2 [compound AB31740] | 80

tested on: Con-NCI-H82 cell (NCI-H82 transfected with empty virus vector); assay: Cell viability assay (Promega CellTiter-Glo), inhibitory effect on Con-NCI-H82 cell; type: cell-based; conditions: Homo sapiens; NCI-H82 transfected with empty virus vector (control); CellTiter-Glo; read-out: inhibitory effect on Con-NCI-H82 (IC50)
Experimental: (§6) The role of expression level of NNMT gene and DNMT1 in the sensitivity of NCI-H82 cell to the compounds prepared in the Examples of the present invention was determined
(§7) The expression of NNMT protein in NCI-H82 cell was overexpressed by inserting the NNMT gene into NCI-H82 cell using a viral vector, and the NNMT protein-overexpressing NCI-H82 cell (ov-NNMT NCI-H82 cell) was obtained. The expression of DNMT1 in NCI-H82 cell was knocked down transfecting (the by shRNA nucleotide sequence of shRNA was […] TTTTTG (SEQ ID No: 2)) using a viral vector, and the NCI-H82 cell with low expression of DNMT1 protein (sh-DNMT1 NCI-H82 cell) was obtained. The control NCI-H82 cell (Con-NCI-H82 cell) was obtained by transfecting NCI-H82 cell with empty virus vector without carrying NNMT gene and shRNA. The expressing content of NNMT protein and DNMT1 protein in the Con-NCI-H82 cell, the expressing content of NNMT protein in the ov-NNMT NCI-H82 cell, and the expressing content of DNMT1 protein in the sh-DNMT1 NCI-H82 cell were detected using Western Blot assay (as shown in FIG. 15 and FIG. 16), it could be seen from FIG. 15 and FIG. 16 that the NNMT protein was overexpressed in the ov-NNMT NCI-H82 cell and the expression of DNMT1 protein was knocked down (i.e, low expression) in the sh-DNMT1 NCI-H82 cell compared with the expression level of NNMT protein and DNMT protein in the Con-NCI-H82 cell.

Row | SMILES | IC50 [nM]
6 | COc1ccc2cc3[n+](cc2c1NCCc1ccccc1)CCc1cc2c(cc1-3)OCO2 [compound AB31740] | 490

tested on: sh-DNMT1 NCI-H82 cell (DNMT1 knocked down NCI-H82); assay: Cell viability assay (Promega CellTiter-Glo), inhibitory effect on sh-DNMT1 NCI-H82 cell; type: cell-based; conditions: Homo sapiens, NCI-H82 with DNMT1 knocked down by shRNA
Experimental: as §6, §7

Row | SMILES | IC50 [nM]
7 | COc1ccc2cc3[n+](cc2c1NCCc1ccccc1)CCc1cc2c(cc1-3)OCO2 [compound AB31740] | 1570

tested on: SF126 (human glioblastoma multiforme cell); assay: Cell viability assay (Promega CellTiter-Glo), inhibitory effect on SF126; type: cell-based; conditions: 72 h, SF-126, 3 days of culture, Table 3, read-out: inhibitory effect on SF-126 (IC50)
Experimental: as §4, §5, §3
Cell line SF126 (JCRB, No. IFO50286) was cultured in 10% fetal bovine serum-containing EMEM medium (+P/S).
as §1, §2

Row | SMILES | IC50 [nM]
8 | COc1ccc2cc3[n+](cc2c1NCCc1ccccc1)CCc1cc2c(cc1-3)OCO2 [compound AB31740] | 7770

same assay, conditions: SF-126, 72 h, SF126, 3 days of culture, Table 4, read-out: inhibitory effect on brain cell line SF126 (IC50)

Row | SMILES | IC50 [nM]
9 | COc1ccc2cc3[n+](cc2c1NCCc1ccccc1)CCc1cc2c(cc1-3)OCO2 [compound AB31740] | 7770

tested on: CFPAC-1 (human pancreatic cancer cell); assay: Cell viability assay (Promega CellTiter-Glo), inhibitory effect on CFPAC-1; type: cell-based; conditions: 72 h, 3 days of culture
Experimental: as §4, §5, §3
Cell line CFPAC-1 (ATCC, No. CRL-1918) was cultured in 10% fetal bovine serum-containing IMDM medium (+P/S).

Row | SMILES | IC50 [nM]
10 | COc1ccc2cc3[n+](cc2c1NCCc1ccccc1)CCc1cc2c(cc1-3)OCO2 [compound AB31740] | 12400

tested on: GB-1 (human brain glioblastoma cell); assay: Cell viability assay (Promega CellTiter-Glo), inhibitory effect on GB-1; type: cell-based; conditions: 72 h, 3 days of culture, Table 3, read-out: inhibitory effect on GB-1 (IC50)
Experimental: as §4, §5, §3
Cell line GB-1 (JCRB, No. IFO50489) was cultured in 10% fetal bovine serum-containing DMEM medium (+P/S).
as §1, §2

Row | SMILES | IC50 [nM]
11 | COc1ccc2cc3[n+](cc2c1NCCc1ccccc1)CCc1cc2c(cc1-3)OCO2 [compound AB31740] | 7740

same assay, conditions: 72 h, 3 days of culture, Table 4, read-out: inhibitory effect on brain cell line GB-1 (IC50)

Row | SMILES | IC50 [nM]
12 | COc1ccc2cc3[n+](cc2c1NCCc1ccccc1)CCc1cc2c(cc1-3)OCO2 [compound AB31740] | 7740

tested on: 786-O (clear cell renal cell adenocarcinoma cell); assay: Cell viability assay (Promega CellTiter-Glo), inhibitory effect on 786-O; type: cell-based; conditions: Homo sapiens, 786-0, 72 h, 3 days of culture
Experimental: as §4, §5, §3
Cell line 786-0 (ATCC, No. CRL-1932) was cultured in 10% fetal bovine serum-containing RPMI1640 medium (+P/S).

Row | SMILES | IC50 [nM]
13 | COc1ccc2cc3[n+](cc2c1NCCc1ccccc1)CCc1cc2c(cc1-3)OCO2 [compound AB31740] | 5130

tested on: G-401 (human renal carcinoma Wilms cell); assay: Cell viability assay (Promega CellTiter-Glo), inhibitory effect on G-401; type: cell-based; conditions: 72 h, 3 days of culture
Experimental: as §4, §5, §3
Cell line G-401 (ATCC, No. CRL-1441) was cultured in 10% fetal bovine serum-containing McCoy's 5a medium (+P/S).

Row | SMILES | IC50 [nM]
14 | COc1ccc2cc3[n+](cc2c1NCCc1ccccc1)CCc1cc2c(cc1-3)OCO2 [compound AB31740] | 930

tested on: Kelly (brain neuroblastoma cell); assay: Cell viability assay (Promega CellTiter-Glo), inhibitory effect on Kelly; type: cell-based; conditions: Homo sapiens, 72 h, 3 days of culture, read-out: inhibitory effect on brain cell line Kelly (IC50)
Experimental: as §1, §2, §3
Cell line Kelly (ECACC, No. 92110411) was cultured in 10% fetal bovine serum and 2 mM glutamine-containing RPMI1640 medium.

Row | SMILES | IC50 [nM]
15 | COc1ccc2cc3[n+](cc2c1NCCc1ccccc1)CCc1cc2c(cc1-3)OCO2 [compound AB31740] | 840

tested on: ov-NNMT NCI-H82 cell (NNMT protein-overexpressing NCI-H82); assay: Cell viability assay (Promega CellTiter-Glo), inhibitory effect on ov-NNMT NCI-H82 cell; type: cell-based; conditions: Homo sapiens
Experimental: as §6, §7

Row | SMILES | IC50 [nM]
16 | COc1ccc2cc3[n+](cc2c1NCCc1ccccc1)CCc1cc2c(cc1-3)OCO2 [compound AB31740] | 1550
